Measurements as given in patent US20230136299A1, “TREATMENT OF LIVER FAILURE” (HEPYX LIMITED, priority 2020, published 2023).
Entries after “also recorded” stand apart in the source; their conditions may differ.

What was measured:
[1] = test system: rat ACLF model (BDL + LPS); test: BDL + LPS rat ACLF model; details: LPS after BDL, TAK-242 10 mg/kg i.p. before and after LPS
THP1 monocytes = test: THP1 response to LPS after G-CSF stimulation, monocytes; assay type: cell-based
Description: (§1) Densitometry was measured by using ImageJ and values are depicted as mean pixel density. After sample pooling no statistical comparison could be applied. H) Liver aSMA expression (CC14-LPS 24 hours treatment model) Liver sections were stained for aSMA (n=4 per group) as a marker of stellate cell activation. LPS increased the aSMA positive area from 1.4% ± 0.6 in CC14 animals to 8.6% ± 1.9 (p<0.001) and 9% ± 4.1 (p<0.001) when combined with G-CSF. […] Image J was used for image quantification and group comparison was performed by one-way ANOVA and post-hoc Tukey’s multiple comparison. I) THP1 response to LPS after G-CSF stimulation. THP1 were PMA activated into a macrophage like phenotype and stimulated with LPS (10 ng/mL) ± G-CSF (100 ng/mL) (2 batches in 2 replicates). Treatment was performed with TAK-242 200 nM in two of the groups. RNA extraction to measure cytokine response was performed 3-hr after LPS incubation. LPS induced an upregulation of IL-6 mRNA expression 60.2-fold in THP1 monocytes and 6.2-fold in macrophages which was enhanced by pre-incubation with G-CSF (monocytes 71-fold, macrophages 6.7-fold). TAK-242 reduced IL-6 mRNA expression compared to unstimulated cells to 5.1-fold in monocytes and 2.8-fold in macrophages resembling biological significance. […] G-CSF exaggerated the IL-1b expression 2.5-fold compared to unstimulated cells whereas it remained unchanged in macrophages (1.1-fold compared to unstimulated cells). TAK-242 decreased the IL-1b response in both cell lines (monocytes 1.3-fold and macrophages 0.7-fold compared to unstimulated cells). J) Proliferative effect of G-CSF after CC14. […] G-CSF (250 µg/kg, s.c.) was injected without previous LPS administration once daily for 5-days. Results were compared to groups administered LPS. […] Ki67 expression as a marker of hepatocyte division increased from 0.6% ± 0.2 after CC14 + LPS + G-CSF to 4.1% ± 2.9 (p<0.001) after CC14 + G-CSF. Image J was used for image quantification and group comparison was performed by one-way ANOVA and post-hoc Tukey’s multiple comparison.
(§2) Monocytes and macrophages are major source of cytokine release in liver disease. The inventors therefore tested in vitro, to what extent LPS and G-CSF modulate the cytokine response in PMA activated and native THP1 cells. […] These in vitro findings are in keeping with hepatic IL6 levels, which increased 2.8-fold in G-CSF-treated animals (FIG. 4D). […] The data help to explain the reduction in markers of organ injury in the ACLF animals treated with G-CSF/TAK-242.

[2] = test system: C57B/6 mice with CCL4 + GalN induced ACLF; test: CCL4 + galactosamine (GalN) non-inflammatory ACLF mouse model
Description: C57B/6 mice were gavaged for 6-weeks with carbon tetrachloride (CC14) 0.5 ml/ml to induce chronic liver injury (n=8 per group). Thereafter, galactosamine (GalN) (1000 mg/kg) was administered to induce a non-inflammatory liver injury and treatment with the RIPK1 inhibitor, RIPA56 3 mg/kg i.p. was initiated every 12-hrs.

[3] = test system: C57B/6 mice with CCL4 + LPS induced ACLF; test: CCL4 + LPS ACLF mouse model; assay type: in vivo; details: for proliferating (Cyclin A positive) hepatocytes: 5 days treatment
Description: Thereafter injection of LPS (Klebsiella, 4 mg/kg, i.p.) served as a second hit to induce organ injury. […] CCL4- Carbontetrachloride; G-CSF - granulocyte colony stimulating factor.
Thereafter injection of LPS (Klebsiella, 4 mg/kg, i.p.) served as a second hit to induce organ injury.
Thereafter injection of LPS (Klebsiella, 4 mg/kg, i.p.) served as a second hit to induce organ injury. […] It majorly regulated the transition from G2 to M phase. […] E) BCL2 is the effector molecule of the STAT3 pathway which carries anti-apoptotic and antibacterial properties. […] Image J was used for image quantification and group comparison was performed by one-way ANOVA and post-hoc Tukey’s multiple comparison mRNA data is delineated as ddCt value. Western blots were performed with protein lysates pooled from all animals per group. G) Liver protein expression of markers of inflammation, cell death and regeneration/senescence (CC14-LPS 24 h treatment model). Liver lysates from 4 randomly selected animals per group were pooled and applied onto one profiler membrane.
Second, due to the conflicting data concerning the therapeutic benefit of G-CSF the present inventors performed pre-clinical studies in well-established rodent models of ACLF in order to clarify the effect of stem cell mobilisation. C57BL/6 Mice were gavaged with carbon tetrachloride (CCL4) for 6 weeks to induce liver fibrosis and subsequently injected with lipopolysaccharide (LPS) to induce tissue injury and organ failure. One hour after LPS injection mice were treated with G-CSF subcutaneously 250 µg/kg once daily for 5 consecutive days (FIG. 1A).
The inventors then tested whether TLR4 inhibition (e.g. TAK-242) rescues from G-CSF driven injury and inflammation in preclinical models of ACLF.

[4] = test system: PMA-activated THP1 macrophage-like cells; test: THP1 response to LPS after G-CSF stimulation, PMA activated macrophages; assay type: cell-based
Description: as §1, §2

[5] = LPS 10 ng/mL ± G-CSF 100 ng/mL, TAK-242 200 nM, 3-hr after LPS, compared to unstimulated cells
[6] = LPS 10 ng/mL ± G-CSF 100 ng/mL, TAK-242 200 nM, compared to unstimulated cells
[7] = 48 hours treatment, value (range)
[8] = LPS +/- G-CSF, TAK-242 10 mg/kg i.p. twice for 24 h, 10 mg/kg
[9] = RIPA56 3 mg/kg i.p. every 12-hrs, n=3
[10] = RIPA56 3 mg/kg i.p. every 12-hrs, p<0.001 compared to CCl4 + GalN, 3 mg/kg

CCOC(=O)C1=CCCC[C@H]1S(=O)(=O)Nc1ccc(F)cc1Cl [TAK-242, Ethyl (6R)-6-[N-(2-chloro-4-fluorophenyl)sulfamoyl]cyclohex-1-ene-1-carboxylate]
ALT levels ([1]; 10 mg/kg): improving plasma ALT levels; also recorded: significantly reduced | liver cell death (TUNEL) ([1]; recAP pre-treatment 1000 U/kg i.p. over 4 days): effective in reducing cell death in the liver; also recorded: significantly reduced | IL-6 mRNA expression (THP1 monocytes; [5]): 5.1 fold | IL-1b expression (THP1 monocytes; [6]): 1.3 fold | cytokine response to LPS alone or in combination with G-CSF (THP1 monocytes; in the presence of TAK-242): completely prevented | Cyclin A2 (proliferating hepatocytes) ([2]; 48 hours treatment): 1.9% ± 1.6 | Ki67 (proliferating hepatocytes) ([2]; 48 hours treatment): 3% ± 2.1 | p21 (hepatocytes in cell cycle arrest) ([2]; 48 hours treatment): 7.1% ± 4.5 | RIPK3 expression (necroptotic cell death) [2, 7]: 1.7% (range 0.9-2.1) | liver cell death (TUNEL) [2, 7]: 1.4% (range 0.4-3.3) | CyclinA2/TUNEL ratio ([2]; GalN 48-hr treatment): 0.9 | degree of proliferating (Cyclin A2, Ki67) and senescent (p21) hepatocytes ([2]; mouse, in vivo): did not alter; also recorded: maintained | proliferating (Cyclin A positive) hepatocytes [3]: not proliferating | proliferating (Cyclin A positive) hepatocytes ([3]; listed as TAK242): did not enhance | CyclinA2/TUNEL ratio ([3]; CCl4-LPS 24-hr treatment model): 1.4 | ALT levels [3, 8]: reduction in plasma ALT levels; also recorded: prevented | liver cell death (TUNEL) [3, 8]: reduction in liver cell death; also recorded: prevented | CDKN2A (p16) mRNA level ([3]; after LPS injection): decreased in a stepwise manner | stellate cells activation (aSMA expression) ([3]; after LPS injection): significantly abrogated | G-CSF-related death ([3]; mouse, in vivo): protected from G-CSF-related death | hepatic cytokine expression (mRNA) (IL6, TNFa) ([3]; mouse, in vivo): reduced | liver protein expression of vascular regeneration and regeneration markers (angiopoietin 2, proliferin, PDGF, IL-22, Flt3-ligand, IGFBP-1) ([3]; proteome profiler, pooled liver lysates, 24-hours): reduced | IL-6 mRNA expression [4, 5]: 2.8 fold | IL-1b expression [4, 6]: 0.7 fold | cytokine response to LPS alone or in combination with G-CSF ([4]; in the presence of TAK-242): completely prevented

CCC(C)(C)C(=O)N(O)Cc1ccccc1 [RIPA56]
Cyclin A2 (hepatocyte proliferation) [2, 9]: 0.03% ± 0.1 | Ki67 (hepatocyte proliferation) [2, 9]: 0.2% ± 0.2 | GalN-induced cell death (TUNEL) [2, 10]: effectively prevented; also recorded: reduced | RIPK3 expression [2, 10]: effectively prevented; also recorded: reduced
